Consider 73 sequences from the supplement of paper PMC11208160.
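Note: IS621 recombinase and bridge RNA in Escherichia coli cells.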

The nature of this series: recombinant barcode read abundance after kanamycin selection (control-corrected) (log10(CPM+1)); higher = more efficient recombination; sequences stand for … in AGTGCAGAGAAAATCGGCCAGTTTTCTCTGCCTGCAGTCCGCATGCCGT…AGATTTATGCAGCGGACTGCCTTTCTCCCAAAGTGATAAACCGGACAGTATCATGGACCGGTTTTCCCGGTAATCCGTATTTGCAAGGTTGGTTTCACT; site = the 11-nt target. On the procedure: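 Pooled E. coli target-specificity screen for the IS621 bridge recombinase. Each library plasmid pairs an 11-nt target (CT core) with a bridge RNA whose target-binding loop (9-nt LTG + 4-nt RTG) is reprogrammed; the rest of the 177-nt WT IS621 bridge RNA scaffold is fixed. The plasmid is co-electroporated with a WT donor plasmid; recombinase is induced with 0.1 mM IPTG and recombinants are selected on kanamycin. Recombinant barcodes are sequenced, converted to CPM, averaged over two biological replicates and corrected by the unselected control CPM. Molecule = full bridge RNA written as DNA: LTG = specificity nt 1-9, RTG = reverse complement of specificity nt 8-11, in the WT scaffold.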
With “ACGGGTGCTTGGGTTCTAACCTGTTGCCT (site ACGGGTGCTAG)”, the “recombinant barcode read abundance (log10)” value worked out at 1.86.
In the case of “ACGGGTGCTTGGGTTCTAACCTGTTGCCT (site ACGGTTGCTAG)” it was 0.103; in that of “ACGTCACCTTGGGTTCTAACCTGTTGCCT (site ACGTCACCTAG)”, 0.536; in that of “ACGTCACCTTGGGTTCTAACCTGTTGCCT (site CCGTCACCTAG)”, 0.0656.
“ACGTCACCTTGGGTTCTAACCTGTTGCCT (site GCGTCACCTAG)”: the “recombinant barcode read abundance (log10)” value was found to be 0.221.
In the case of “ACGTCACCTTGGGTTCTAACCTGTTGCCT (site TCGTCACCTAG)” it was 0.17; in that of “ACGTGGACTTGGGTTCTAACCTGTTGCTA (site ACGTGGACTTA)”, 1.06.
In the case of “ACGTGGACTTGGGTTCTAACCTGTTGCTA (site GACAATGCTAT)” it was 0.181.
In the case of “ACTAAACCTTGGGTTCTAACCTGTTGCCT (site ACTAAACCTAG)” it was 0.866.
As to “ACTAAACCTTGGGTTCTAACCTGTTGCCT (site GCTAACCCTAG)”, the “recombinant barcode read abundance (log10)” value is 0.246.
Turning to “ACTAATCCTTGGGTTCTAACCTGTTGCTT (site ACTAATCCTAA)”, the “recombinant barcode read abundance (log10)” value was determined as 0.236.
In the case of “ACTAATCCTTGGGTTCTAACCTGTTGCTT (site CCTAATACTAA)” it was 0.105.
In the case of “ACTAGGACTTGGGTTCTAACCTGTTGCGA (site ACTAGGACTAC)” it was 0.0787; in that of “ACTAGGACTTGGGTTCTAACCTGTTGCGA (site ACTAGGACTCC)”, 1.43; in that of “ACTAGGACTTGGGTTCTAACCTGTTGCGA (site ACTAGGACTGC)”, 0.0331.
In the case of “ACTAGGACTTGGGTTCTAACCTGTTGCGA (site ACTAGGACTTC)” it was 2.27; in that of “ACTAGGTCTTGGGTTCTAACCTGTTGCTA (site ACTAGCTCTTA)”, 0.0718; in that of “ACTAGGTCTTGGGTTCTAACCTGTTGCTA (site ACTAGGTCTTA)”, 1.04.
As for “ACTAGTCCTTGGGTTCTAACCTGTTGCCT (site ACTAGTCCTAA)”, the “recombinant barcode read abundance (log10)” value was 0.233.
Take “ACTAGTCCTTGGGTTCTAACCTGTTGCCT (site ACTAGTCCTAC)”: the “recombinant barcode read abundance (log10)” value was 0.649.
For “ACTAGTCCTTGGGTTCTAACCTGTTGCCT (site ACTAGTCCTAG)”, the “recombinant barcode read abundance (log10)” value was 0.337.
Consider “ACTAGTCCTTGGGTTCTAACCTGTTGCCT (site ACTAGTCCTAT)”, for which the “recombinant barcode read abundance (log10)” value is 0.0393.
In the case of “ACTAGTGCTTGGGTTCTAACCTGTTGCCT (site AATAGTGCTAG)” it was 0.111; in that of “ACTAGTGCTTGGGTTCTAACCTGTTGCCT (site ACTAGTGCTAG)”, 0.117; in that of “ACTAGTGCTTGGGTTCTAACCTGTTGCCT (site AGTAGTGCTAG)”, 0.0194.
Turning to “ACTAGTGCTTGGGTTCTAACCTGTTGCCT (site ATTAGTGCTAG)”, the “recombinant barcode read abundance (log10)” value was determined as 0.0112.
In the case of “ACTCACTCTTGGGTTCTAACCTGTTGCCT (site ACTCACTCTAG)” it was 2.04; in that of “ACTCACTCTTGGGTTCTAACCTGTTGCCT (site CGATCTCCTGT)”, 0.0794; in that of “ACTCGGCCTTGGGTTCTAACCTGTTGCGA (site ACTCGGCCTTC)”, 2.11.
As to “ACTCGGCCTTGGGTTCTAACCTGTTGCGA (site ACTGGGCCTTC)”, the “recombinant barcode read abundance (log10)” value was determined as 0.172.
Take “ACTCGGCCTTGGGTTCTAACCTGTTGCGT (site ACTCGGCCTAC)”: the “recombinant barcode read abundance (log10)” value was 2.56.
In the case of “ACTCGGCCTTGGGTTCTAACCTGTTGCGT (site ACTCGGCCTAG)” it was 0.0703; in that of “ACTCTAACTTGGGTTCTAACCTGTTGCTT (site ACTATAACTAA)”, 0.154.
In the case of “ACTCTAACTTGGGTTCTAACCTGTTGCTT (site ACTCTAACTAA)” it was 0.121; in that of “ACTCTAACTTGGGTTCTAACCTGTTGCTT (site ACTGTAACTAA)”, 0.0269.
In the case of “ACTCTAACTTGGGTTCTAACCTGTTGCTT (site ACTTTAACTAA)” it was 0.0201.
Take “ACTGGTTCTTGGGTTCTAACCTGTTGCCG (site ACTGGTTCTCG)”: the “recombinant barcode read abundance (log10)” value stood at 0.696.
In the case of “ACTGGTTCTTGGGTTCTAACCTGTTGCCG (site TACTCACCTAA)” it was 0.0451; in that of “ACTGTCACTTGGGTTCTAACCTGTTGCGG (site ACTGTCACTCC)”, 3.28; in that of “ACTGTCACTTGGGTTCTAACCTGTTGCGG (site GTGTATTCTAG)”, 0.046.
In the case of “ACTTAGACTTGGGTTCTAACCTGTTGCCT (site ACTTAGACTAG)” it was 1.02; in that of “ACTTAGACTTGGGTTCTAACCTGTTGCCT (site ACTTAGACTCG)”, 0.313; in that of “ACTTAGACTTGGGTTCTAACCTGTTGCCT (site ACTTAGACTGG)”, 0.258.
In the case of “ACTTAGACTTGGGTTCTAACCTGTTGCCT (site ACTTAGACTTG)” it was 0; in that of “ACTTAGACTTGGGTTCTAACCTGTTGCGG (site ACTTAGACTCC)”, 2.56.
“ACTTAGACTTGGGTTCTAACCTGTTGCGG (site TCTTAGACTCC)”: the “recombinant barcode read abundance (log10)” value is 0.416.
For “ACTTAGCCTTGGGTTCTAACCTGTTGCCT (site ACTTAGCCTAG)”, the “recombinant barcode read abundance (log10)” value worked out at 1.33.
In the case of “ACTTAGCCTTGGGTTCTAACCTGTTGCCT (site ACTTAGCCTAT)” it was 0.0989; in that of “ACTTCCACTTGGGTTCTAACCTGTTGCCT (site ACTTCCACTAG)”, 0.613; in that of “ACTTCCACTTGGGTTCTAACCTGTTGCCT (site CCTTCCACTAG)”, 0.0483.
In the case of “ACTTCCACTTGGGTTCTAACCTGTTGCCT (site GCTTCCACTAG)” it was 0.0573; in that of “ACTTCCACTTGGGTTCTAACCTGTTGCCT (site TCTTCCACTAG)”, 0.111; in that of “ACTTCTACTTGGGTTCTAACCTGTTGCTA (site ACATCTACTTA)”, 0.141.
In the case of “ACTTCTACTTGGGTTCTAACCTGTTGCTA (site ACTTCTACTTA)” it was 0.0751; in that of “ACTTGAACTTGGGTTCTAACCTGTTGCCT (site ACATGAACTAG)”, 0.419; in that of “ACTTGAACTTGGGTTCTAACCTGTTGCCT (site ACCTGAACTAG)”, 0.0239.
In the case of “ACTTGAACTTGGGTTCTAACCTGTTGCCT (site ACGTGAACTAG)”, the “recombinant barcode read abundance (log10)” value was found to be 0.146.
In the case of “ACTTGAACTTGGGTTCTAACCTGTTGCCT (site ACTTGAACTAG)” it was 0.383; in that of “ACTTGAACTTGGGTTCTAACCTGTTGCTT (site ACTTGAACTAA)”, 0.0959; in that of “ACTTGAACTTGGGTTCTAACCTGTTGCTT (site ACTTTAGCTAA)”, 0.0785.
In the case of “ACTTGAGCTTGGGTTCTAACCTGTTGCAT (site ACTTGAGCTAT)” it was 1.36; in that of “ACTTGAGCTTGGGTTCTAACCTGTTGCAT (site TAGACTCCTTG)”, 0.232.
Take “ACTTTAACTTGGGTTCTAACCTGTTGCTT (site ACTATAACTAA)”: the “recombinant barcode read abundance (log10)” value is 0.185.
In the case of “ACTTTAACTTGGGTTCTAACCTGTTGCTT (site ACTCTAACTAA)” it was 0.229; in that of “ACTTTAACTTGGGTTCTAACCTGTTGCTT (site ACTGTAACTAA)”, 0.0934.
In the case of “ACTTTAACTTGGGTTCTAACCTGTTGCTT (site ACTTTAACTAA)” it was 0.217; in that of “ACTTTAGCTTGGGTTCTAACCTGTTGCAG (site ACATTAGCTTT)”, 0.056; in that of “ACTTTAGCTTGGGTTCTAACCTGTTGCAG (site ACTTTAGCTCT)”, 0.694.
In the case of “ACTTTGCCTTGGGTTCTAACCTGTTGCCT (site ACATTGCCTAG)” it was 0.0554.
Take “ACTTTGCCTTGGGTTCTAACCTGTTGCCT (site ACCTTGCCTAG)”: the “recombinant barcode read abundance (log10)” value came out at 0.0879.
In the case of “ACTTTGCCTTGGGTTCTAACCTGTTGCCT (site ACGTTGCCTAG)” it was 0.0319.
In the case of “ACTTTGCCTTGGGTTCTAACCTGTTGCCT (site ACTTTGCCTAG)” it was 0.953; in that of “AGAAAGTCTTGGGTTCTAACCTGTTGCGT (site AGAAAGTCTAC)”, 2.36.
